{"source": "patent US20170112773A1", "about": "“PLASMA MEMBRANE VESICLES COMPRISING FUNCTIONAL TRANSMEMBRANE PROTEINS” (Board of Regents, the University of Texas System, priority 2015, published 2017)", "key": {"recipient HeLa cells": {"tested_on": "recipient HeLa cells", "assay": "Dye delivery study: CRO dye delivery to recipient cells, flow cytometry", "type": "cell-based", "settings": "300 μM carbenoxolone", "protocol": "The media for the blocked condition was supplemented with 300 μM carbenoxolone, prepared from a 100 mM stock in water. […] Recipient cells for the blocked condition were incubated in PBS supplemented with 300 μM carbenoxolone. Calcein red-orange-loaded vesicles were formed using calcium-free GPMV buffer. […] This ratio was estimated based on hemocytometer counts of the number of vesicles and of the number of recipient cells in a 12 well dish. […] At least 7,500 cells were analyzed for each trial."}, "HeLa cells": {"tested_on": "HeLa cells", "settings": "24 hours of exposure, literature; cited from earlier work"}, "in vitro [1]": {"assay": "in vitro", "settings": "human, HeLa cells", "description": "Recipient HeLa cells were plated in a 12 well plate at a density of 25,000 cells per well and a total media volume of 2 mL media per well. Seven hours before addition of the GPMVs, recipient cells received fresh media. Just before addition of the GPMVs, the recipient cells were rinsed once with 2 mL PBS and then incubated in 500 μL fresh PBS. Concentrated GPMVs were resuspended in fresh calcium-free GPMV buffer and counted using a hemocytometer. GPMVs were added to recipient cells at a ratio of approximately 1 GPMV per 2 recipient cells and incubated in the dark at 37° C. with 5% CO2 for 2 hours. After incubation, the recipient cells were rinsed with 2 mL media and then incubated in 2 mL fresh media at 37° C. with 5% CO2. After 24 hours, cell viability was analyzed using a trypan blue or 7-AAD permeability assay.\nFor the trypan blue assay, the cells were trypsinized with 500 μL trypsin for 5 minutes at 37° C., 5% CO2. […] At least 90 cells were counted for each trial using a hemocytometer. […]\nThe relationship between the concentration of doxorubicin added via solution and cell viability was determined by incubating recipient HeLa cells in the specified doxorubicin concentration diluted in media from a 10 mM stock in DMSO for 24 hours. Cell viability was measured using both viability assays as described above."}, "in vitro [2]": {"assay": "in vitro", "settings": "human, HeLa cells", "remark": "listed apart in the source", "description": "Recipient HeLa cells were plated in a 12 well plate at a density of 25,000 cells per well and a total media volume of 2 mL media per well. Seven hours before addition of the GPMVs, recipient cells received fresh media. Just before addition of the GPMVs, the recipient cells were rinsed once with 2 mL PBS and then incubated in 500 μL fresh PBS. Concentrated GPMVs were resuspended in fresh calcium-free GPMV buffer and counted using a hemocytometer. GPMVs were added to recipient cells at a ratio of approximately 1 GPMV per 2 recipient cells and incubated in the dark at 37° C. with 5% CO2 for 2 hours. […] After 24 hours, cell viability was analyzed using a trypan blue or 7-AAD permeability assay.\nFor the 7-AAD assay, the cells were trypsinized with 500 μL trypsin for 5 minutes at 37° C., 5% CO2. […] Five μL of 7-AAD was added to 45 μL of the resuspended cells, and analyzed using flow cytometry within three minutes of 7-AAD addition. At least 5,000 cells were analyzed for each trial. […] To determine the percentage of non-viable cells in each sample, a threshold was drawn on the flow cytometry fluorescence histograms at the minimum point between the population of cells excluding the dye and the population of cells including the dye. The percentage of cells with fluorescence above these thresholds were considered non-viable. […]"}, "in vitro [3]": {"assay": "in vitro", "settings": "human, MCF-7 cells", "description": "To test Connectosomes in a second model cell line, the assay was repeated using recipient MCF-7 cells. […] First, a control study was conducted in which the viability of a confluent monolayer of MCF-7 cells was measured 48 hours after free doxorubicin was added directly to the cell media at increasing concentrations from 10 nM to 100 μM (FIG. 4J). Next, independent cell samples were exposed to increasing concentrations of Connectosomes, which were equivalent in terms of total doxorubicin content to free doxorubicin concentrations of 180 nM, 900 nM, and 4.5 μM."}, "CEM-SS lymphocytes": {"tested_on": "CEM-SS lymphocytes", "settings": "peptide concentration 0.1-1 mM, CEM-SS lymphocytes in culture; cited from earlier work"}}}
{"molecule": "CC1(C)[C@@H](OC(=O)CCC(=O)O)CC[C@]2(C)[C@H]3C(=O)C=C4[C@@H]5C[C@@](C)(C(=O)O)CC[C@]5(C)CC[C@@]4(C)[C@]3(C)CC[C@@H]12", "note": "[carbenoxolone]", "values": [{"measurement": "Effect of gap junction inhibitor on CRO dye delivery by Connectosomes", "setting": "recipient HeLa cells", "result": "significantly decreased the average recipient cell fluorescence"}]}
{"molecule": "COc1cccc2c1C(=O)c1c(O)c3c(c(O)c1C2=O)C[C@@](O)(C(=O)CO)C[C@@H]3O[C@H]1C[C@H](N)[C@H](O)[C@H](C)O1", "note": "[free doxorubicin, doxorubicin]", "values": [{"measurement": "Cytotoxic dose of doxorubicin", "setting": "HeLa cells", "result": "approximately 10 μM"}, {"measurement": "cytotoxicity at 24 h, 10 µM", "setting": "in vitro [1]", "result": 44, "unit": "%"}, {"measurement": "cytotoxicity at 24 h, 100 µM", "setting": "in vitro [1]", "result": 87, "unit": "%"}, {"measurement": "cytotoxicity at 24 h, 10 µM", "setting": "in vitro [2]", "result": 45, "unit": "%"}, {"measurement": "cytotoxicity at 48 h, 100 µM", "setting": "in vitro [3]", "result": 44, "unit": "%"}]}
{"molecule": "SEQ ID NO:1: fusogenic peptide from influenza virus hemagglutinin HA-2", "values": [{"measurement": "Increase of anti-HIV potency of antisense oligonucleotides", "setting": "CEM-SS lymphocytes", "result": "up to 10 fold"}]}
